For the experiment, the target named is T1, human PAH with the R408W mutation (A375 R408W cells) (Homo sapiens, UniProt P00439, R408W).
T1 construct: expressed in transfected cells
T1 sequence (P00439 1-452 R408W): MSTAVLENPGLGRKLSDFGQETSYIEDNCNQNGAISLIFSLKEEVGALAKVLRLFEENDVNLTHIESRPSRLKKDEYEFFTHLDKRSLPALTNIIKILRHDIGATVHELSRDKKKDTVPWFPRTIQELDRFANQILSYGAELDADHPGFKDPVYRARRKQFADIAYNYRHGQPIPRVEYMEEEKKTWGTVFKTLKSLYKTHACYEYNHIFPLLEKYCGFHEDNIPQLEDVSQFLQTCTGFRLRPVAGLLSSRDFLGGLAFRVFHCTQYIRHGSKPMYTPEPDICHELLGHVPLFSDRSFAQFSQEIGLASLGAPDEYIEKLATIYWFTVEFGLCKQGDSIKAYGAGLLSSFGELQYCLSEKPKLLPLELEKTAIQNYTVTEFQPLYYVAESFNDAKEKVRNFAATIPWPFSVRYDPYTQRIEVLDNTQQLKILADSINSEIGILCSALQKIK
The experiment in a line: Cell Based Phenylalanine Flux Assay. The note with it: A375 R408W cells; 24 hrs with compound, then 20 μM sepiapterin and 800 μM 13C9,15N-Phenylalanine for 4 hours; 13C-Tyrosine by LC-MS; average where tested multiple times. In outline:
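Puromycin-selected A375 line, lentiviral hPAH R408W; cmpd 24 h, 37 °C, 5% CO2, 0.5% DMSO; then 20 μM sepiapterin + 800 μM 13C9,15N-Phe, 4 h; media extracted in 80% MeCN; 13C-Tyr by LC-MS; AC50 from 10-pt curves.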
As usually defined, the AC50 is the concentration giving half of the maximal activity seen. For `O=C(c1cnco1)N1CCc2[nH]cnc2[C@H]1c1nc2cccc(F)c2o1` [Example 281, (S)-(4-(7-fluorobenzo[d]oxazol-2-yl)-6,7-dihydro-1H-imidazo[4,5-c]pyridin-5(4H)-yl)(oxazol-5-yl)methanone], the AC50 is 500 to 1000 nM. In the case of `O=C(c1cnco1)N1CCc2[nH]cnc2[C@@H]1c1nc2cccc(F)c2o1` [Example 282, (R)-(4-(7-fluorobenzo[d]oxazol-2-yl)-6,7-dihydro-1H-imidazo[4,5-c]pyridin-5(4H)-yl)(oxazol-5-yl)methanone], the half-maximal activity concentration (AC50) was 1000 to 5000 nM. The same measure for `Cn1nc(Cl)nc1C(=O)N1CCc2[nH]cnc2[C@H]1c1nc2cccc(F)c2o1` [Example 283, (S)-(3-chloro-1-methyl-1H-1,2,4-triazol-5-yl)(4-(7-fluorobenzo[d]oxazol-2-yl)-6,7-dihydro-1H-imidazo[4,5-c]pyridin-5(4H)-yl)methanone]: not above 500 nM; for `Cn1nc(Cl)nc1C(=O)N1CCc2[nH]cnc2[C@@H]1c1nc2cccc(F)c2o1` [Example 284, (R)-(3-chloro-1-methyl-1H-1,2,4-triazol-5-yl)(4-(7-fluorobenzo[d]oxazol-2-yl)-6,7-dihydro-1H-imidazo[4,5-c]pyridin-5(4H)-yl)methanone]: 1000 to 5000 nM; for `Cn1nc(C(F)F)nc1C(=O)N1CCc2[nH]cnc2[C@H]1c1nc2cccc(F)c2o1` [Example 285, (S)-(3-(difluoromethyl)-1-methyl-1H-1,2,4-triazol-5-yl)(4-(7-fluorobenzo[d]oxazol-2-yl)-6,7-dihydro-1H-imidazo[4,5-c]pyridin-5(4H)-yl)methanone]: 500 to 1000 nM. The same measure for `Cn1nc(C(F)F)nc1C(=O)N1CCc2[nH]cnc2[C@@H]1c1nc2cccc(F)c2o1` [Example 286, (R)-(3-(difluoromethyl)-1-methyl-1H-1,2,4-triazol-5-yl)(4-(7-fluorobenzo[d]oxazol-2-yl)-6,7-dihydro-1H-imidazo[4,5-c]pyridin-5(4H)-yl)methanone]: 1000 to 5000 nM; for `O=C(c1ccnn1C(F)(F)F)N1CCc2[nH]cnc2[C@H]1c1nc2ccc(F)cc2o1` [Example 287, (S)-(4-(6-fluorobenzo[d]oxazol-2-yl)-6,7-dihydro-1H-imidazo[4,5-c]pyridin-5(4H)-yl)(1-(trifluoromethyl)-1H-pyrazol-5-yl)methanone]: 500 to 1000 nM; for `O=C(c1ccnn1C(F)(F)F)N1CCc2[nH]cnc2[C@@H]1c1nc2ccc(F)cc2o1` [Example 288, (R)-(4-(6-fluorobenzo[d]oxazol-2-yl)-6,7-dihydro-1H-imidazo[4,5-c]pyridin-5(4H)-yl)(1-(trifluoromethyl)-1H-pyrazol-5-yl)methanone]: 1000 to 5000 nM. Under `O=C(c1ccnn1C(F)(F)F)N1CCc2[nH]cnc2[C@H]1c1nc2cccc(F)c2o1` [Example 289, (S)-(4-(7-fluorobenzo[d]oxazol-2-yl)-6,7-dihydro-1H-imidazo[4,5-c]pyridin-5(4H)-yl)(1-(trifluoromethyl)-1H-pyrazol-5-yl)methanone] stands 500 to 1000 nM; under `O=C(c1ccnn1C(F)(F)F)N1CCc2[nH]cnc2[C@@H]1c1nc2cccc(F)c2o1` [Example 290, (R)-(4-(7-fluorobenzo[d]oxazol-2-yl)-6,7-dihydro-1H-imidazo[4,5-c]pyridin-5(4H)-yl)(1-(trifluoromethyl)-1H-pyrazol-5-yl)methanone], 1000 to 5000 nM. On to `CN(C)C(C)(C)c1nc(C(F)F)c(C(=O)N2CCc3[nH]cnc3[C@H]2c2nc3cc(F)ccc3o2)o1` [Example 291, (S)-(4-(difluoromethyl)-2-(2-(dimethylamino)propan-2-yl)oxazol-5-yl)(4-(5-fluorobenzo[d]oxazol-2-yl)-6,7-dihydro-1H-imidazo[4,5-c]pyridin-5(4H)-yl)methanone], for which the AC50 is not above 500 nM.

Take `CN(C)C(C)(C)c1nc(C(F)F)c(C(=O)N2CCc3[nH]cnc3[C@@H]2c2nc3cc(F)ccc3o2)o1` [Example 292, (R)-(4-(difluoromethyl)-2-(2-(dimethylamino)propan-2-yl)oxazol-5-yl)(4-(5-fluorobenzo[d]oxazol-2-yl)-6,7-dihydro-1H-imidazo[4,5-c]pyridin-5(4H)-yl)methanone]: the AC50 was not above 500 nM. The same measure for `O=C(c1ccnn1C(F)(F)F)N1CCc2[nH]cnc2[C@H]1c1nc2c(F)cccc2o1` [Example 293, (S)-(4-(4-fluorobenzo[d]oxazol-2-yl)-6,7-dihydro-1H-imidazo[4,5-c]pyridin-5(4H)-yl)(1-(trifluoromethyl)-1H-pyrazol-5-yl)methanone]: not above 500 nM; for `O=C(c1ccnn1C(F)(F)F)N1CCc2[nH]cnc2[C@@H]1c1nc2c(F)cccc2o1` [Example 294, (R)-(4-(4-fluorobenzo[d]oxazol-2-yl)-6,7-dihydro-1H-imidazo[4,5-c]pyridin-5(4H)-yl)(1-(trifluoromethyl)-1H-pyrazol-5-yl)methanone]: 1000 to 5000 nM; for `O=C(c1ocnc1C(F)F)N1CCc2[nH]cnc2[C@H]1c1nc2cc(F)c(F)cc2o1` [Example 295, (S)-(4-(5,6-difluorobenzo[d]oxazol-2-yl)-6,7-dihydro-1H-imidazo[4,5-c]pyridin-5(4H)-yl)(4-(difluoromethyl)oxazol-5-yl)methanone]: 500 to 1000 nM. `O=C(c1ocnc1C(F)F)N1CCc2[nH]cnc2[C@@H]1c1nc2cc(F)c(F)cc2o1` [Example 296, (R)-(4-(5,6-difluorobenzo[d]oxazol-2-yl)-6,7-dihydro-1H-imidazo[4,5-c]pyridin-5(4H)-yl)(4-(difluoromethyl)oxazol-5-yl)methanone]: the AC50 lay within 1000 to 5000 nM. The same measure for `CC(C)(O)c1nc(C(F)F)c(C(=O)N2CCc3[nH]cnc3[C@H]2c2nc3ccc(F)c(F)c3o2)o1` [Example 297, (S)-(4-(6,7-difluorobenzo[d]oxazol-2-yl)-6,7-dihydro-1H-imidazo[4,5-c]pyridin-5(4H)-yl)(4-(difluoromethyl)-2-(2-hydroxypropan-2-yl)oxazol-5-yl)methanone]: not above 500 nM. As for `CC(C)(O)c1nc(C(F)F)c(C(=O)N2CCc3[nH]cnc3[C@@H]2c2nc3ccc(F)c(F)c3o2)o1` [Example 298, (R)-(4-(6,7-difluorobenzo[d]oxazol-2-yl)-6,7-dihydro-1H-imidazo[4,5-c]pyridin-5(4H)-yl)(4-(difluoromethyl)-2-(2-hydroxypropan-2-yl)oxazol-5-yl)methanone], the AC50 was in the range of 1000 to 5000 nM. Under `CC(C)(O)c1nc(C(F)F)c(C(=O)N2CCc3[nH]cnc3[C@H]2c2nc3c(F)cc(F)cc3o2)o1` [Example 299, (S)-(4-(4,6-difluorobenzo[d]oxazol-2-yl)-6,7-dihydro-1H-imidazo[4,5-c]pyridin-5(4H)-yl)(4-(difluoromethyl)-2-(2-hydroxypropan-2-yl)oxazol-5-yl)methanone] stands not above 500 nM; under `CC(C)(O)c1nc(C(F)F)c(C(=O)N2CCc3[nH]cnc3[C@@H]2c2nc3c(F)cc(F)cc3o2)o1` [Example 300, (R)-(4-(4,6-difluorobenzo[d]oxazol-2-yl)-6,7-dihydro-1H-imidazo[4,5-c]pyridin-5(4H)-yl)(4-(difluoromethyl)-2-(2-hydroxypropan-2-yl)oxazol-5-yl)methanone], 1000 to 5000 nM; under `O=C(c1ocnc1C(F)F)N1CCc2[nH]cnc2[C@H]1c1nc2c(F)cc(F)cc2o1` [Example 301, (S)-(4-(4,6-difluorobenzo[d]oxazol-2-yl)-6,7-dihydro-1H-imidazo[4,5-c]pyridin-5(4H)-yl)(4-(difluoromethyl)oxazol-5-yl)methanone], not above 500 nM.

Regarding `O=C(c1ocnc1C(F)F)N1CCc2[nH]cnc2[C@@H]1c1nc2c(F)cc(F)cc2o1` [Example 302, (R)-(4-(4,6-difluorobenzo[d]oxazol-2-yl)-6,7-dihydro-1H-imidazo[4,5-c]pyridin-5(4H)-yl)(4-(difluoromethyl)oxazol-5-yl)methanone], the AC50 lay in the range of 1000 to 5000 nM. Under `O=C(c1nnc(-c2ccccn2)o1)N1CCc2[nH]cnc2[C@H]1c1nc2ccc(F)cc2o1` [Example 303, (S)-(4-(6-fluorobenzo[d]oxazol-2-yl)-6,7-dihydro-1H-imidazo[4,5-c]pyridin-5(4H)-yl)(5-(pyridin-2-yl)-1,3,4-oxadiazol-2-yl)methanone] stands not above 500 nM. As to `O=C(c1nnc(-c2ccccn2)o1)N1CCc2[nH]cnc2[C@@H]1c1nc2ccc(F)cc2o1` [Example 304, (R)-(4-(6-fluorobenzo[d]oxazol-2-yl)-6,7-dihydro-1H-imidazo[4,5-c]pyridin-5(4H)-yl)(5-(pyridin-2-yl)-1,3,4-oxadiazol-2-yl)methanone], the AC50 is 1000 to 5000 nM. The same measure for `O=C(c1ocnc1C(F)F)N1CCc2[nH]cnc2[C@H]1c1nc2ccc(F)c(F)c2o1` [Example 305, (S)-(4-(6,7-difluorobenzo[d]oxazol-2-yl)-6,7-dihydro-1H-imidazo[4,5-c]pyridin-5(4H)-yl)(4-(difluoromethyl)oxazol-5-yl)methanone]: not above 500 nM; for `O=C(c1ocnc1C(F)F)N1CCc2[nH]cnc2[C@@H]1c1nc2ccc(F)c(F)c2o1` [Example 306, (R)-(4-(6,7-difluorobenzo[d]oxazol-2-yl)-6,7-dihydro-1H-imidazo[4,5-c]pyridin-5(4H)-yl)(4-(difluoromethyl)oxazol-5-yl)methanone]: 1000 to 5000 nM.
